In patent US9084792B2 (Zhejiang Charioteer Pharmaceutical Co., Ltd., priority 2009, dated 2015):

Experiments:
[1] = stability test of crystalline form on storage; format: physicochemical; details: room temperature, relative humidity of less than 50%
Excerpt: (2) It has good stability of crystalline form. […] It can be stored in the dark, cool and dry place for a long time.

[2] = thermal decomposition point; format: physicochemical
Method: (1) It has the property required for large-scale preparation of drugs: for example, it has thermal decomposition point of over 250° C., and good fluidity and bulk density, which are in favor of drug preparation and industrial production on a large scale.

storage time [1]: more than one year
content during the storage time ([1]; more than one year): the content does not reduce
crystalline form during the storage time ([1]; more than one year): the crystalline form remains the same
thermal decomposition point [2]: over 250 °C
Compound: Nc1nc2c(ncn2COCCO)c(=O)[nH]1.Nc1nc2c(ncn2COCCO)c(=O)[nH]1.Nc1nc2c(ncn2COCCO)c(=O)[nH]1.O.O [acyclovir 2/3 hydrate]
